From US20230398080A1, “FLOATING DRUG DELIVERY SYSTEMS COMPRISING CANNABINOIDS” (YISSUM RESEARCH DEVELOPMENT COMP ANY OF THE HEBREW …, priority 2020, published 2023)

Assay: THC-CBD-Metoprolol intra-colon vs oral administration in the freely moving rat model
Conditions: for absorption through the colon in comparison to PO administration: lipid-based self-nano emulsifying formulation via colonic cannula vs PO, CBD 15 mg/kg, THC 20 or 10 mg/kg

SMILES | absorption through the colon in comparison to PO administration | AUC after administration through the colon in comparison to PO administration (colonic cannula vs PO, metoprolol 20 or 15 mg/kg)
CCCCCc1cc(O)c2c(c1)OC(C)(C)[C@@H]1CCC(C)=C[C@@H]21 [THC, tetrahydrocannabinol] | practically not absorbed through the colon | –
COCCc1ccc(OCC(O)CNC(C)C)cc1 (stereo not drawn) [Metoprolol] | – | approximately 4 fold
C=C(C)[C@@H]1CCC(C)=C[C@H]1c1c(O)cc(CCCCC)cc1O [CBD, cannabidiol] | practically not absorbed through the colon | –
